{"source": "patent US20240261257A1", "about": "“METHODS OF TREATING BACTERIAL INFECTIONS” (Sheba Impact Ltd., priority 2023, published 2024)", "key": {"[1]": {"system": "VRE 195", "experiment": "inhibitory effect on clinical isolate VRE 195", "assay_type": "cell-based, vancomycin resistant Enterococci", "conditions": "FIG. 2A, FIG. 3A", "description": "(§1) Iron-free enterobactin from E. coli was purchased from Sigma-Aldrich (E3910) and from EMC (Tübingen, Germany), iron-free salmochelin S4 was purchased from EMC (Tübingen, Germany).\n(§2) Bacterial strains were provided by the Clinical Microbiology Laboratory at Sheba Medical Center.\n(§3) Bacterial final inoculum was 5×10^5 colony-forming units ml^−1. Enterobactin and salmochelin were dissolved in 100% dimethylsulfoxide (DMSO) to a stock solution of 10 μM and further diluted using CAMHB to final concentrations."}, "[2]": {"system": "MRSA SA 198 USA300", "experiment": "broth microdilution growth inhibition (CLSI), MRSA SA 198", "assay_type": "cell-based, S. aureus", "conditions": "CAMHB broth microdilution, read-out: concentration (μM) which inhibits 50% (or more) growth", "description": "as §1, §2, §3"}, "[3]": {"system": "S. aureus", "experiment": "antimicrobial activity against S. aureus (combinations, iron ions; strain not named)", "assay_type": "cell-based", "conditions": "iron ions added; FIGS. 6A-B", "description": "as §1, §2, §3"}, "[4]": {"system": "MRSA SA 742 USA300", "experiment": "broth microdilution growth inhibition (CLSI), MRSA SA 742 USA300", "assay_type": "cell-based, S. aureus", "conditions": "CAMHB broth microdilution, read-out: concentration (μM) which inhibits 50% (or more) growth", "description": "as §1, §2, §3"}, "[5]": {"system": "MRSA SA 255", "experiment": "broth microdilution growth inhibition (CLSI), MRSA SA 255", "assay_type": "cell-based, S. aureus", "conditions": "CAMHB broth microdilution, read-out: concentration (μM) which inhibits 50% (or more) growth", "description": "as §1, §2, §3"}, "[6]": {"system": "MRSA SA 196", "experiment": "broth microdilution growth inhibition (CLSI), MRSA SA 196", "assay_type": "cell-based, S. aureus", "conditions": "CAMHB broth microdilution, read-out: concentration (μM) which inhibits 50% (or more) growth", "description": "as §1, §2, §3"}, "[7]": {"system": "MSSA SA 256", "experiment": "broth microdilution growth inhibition (CLSI), MSSA SA 256", "assay_type": "cell-based, S. aureus", "conditions": "CAMHB broth microdilution, read-out: concentration (μM) which inhibits 50% (or more) growth", "description": "as §1, §2, §3"}, "[8]": {"system": "S. aureus ATCC 25923", "experiment": "broth microdilution growth inhibition (CLSI), S. aureus ATCC 25923", "assay_type": "cell-based", "conditions": "CAMHB broth microdilution, read-out: concentration (μM) which inhibits 50% (or more) growth", "description": "as §1, §2, §3"}, "[9]": {"system": "MSSA SA 197 USA300", "experiment": "broth microdilution growth inhibition (CLSI), MSSA SA 197 USA300", "assay_type": "cell-based, S. aureus", "conditions": "CAMHB broth microdilution, read-out: concentration (μM) which inhibits 50% (or more) growth", "description": "as §1, §2, §3"}, "[10]": {"system": "clinical isolates of MRSA USA300", "experiment": "inhibitory effect on clinical isolates of MRSA USA300 (FIGS. 1A-B)", "assay_type": "cell-based, Staphylococcus aureus", "description": "as §1, §2, §3"}, "[11]": {"system": "VRE 197", "experiment": "inhibitory effect on clinical isolate VRE 197", "assay_type": "cell-based, vancomycin resistant Enterococci", "conditions": "FIG. 2B, FIG. 3B", "description": "as §1, §2, §3"}}}
{"smiles": "O=C(N[C@H]1COC(=O)[C@@H](NC(=O)c2cccc(O)c2O)COC(=O)[C@@H](NC(=O)c2cccc(O)c2O)COC1=O)c1cccc(O)c1O", "note": "[Enterobactin, enterobactin]", "values": [{"measurement": "inhibitory effect on clinical isolates of VRE 195", "setting": "[1]", "value": "inhibitory effect"}, {"measurement": "IC50", "setting": "[2]", "value": "> 5", "unit": "µM"}, {"measurement": "antimicrobial activity against S. aureus in the presence of iron ions", "setting": "[3]", "value": "reduce but do not abolish"}, {"measurement": "IC50", "setting": "[4]", "value": 10, "unit": "µM"}, {"measurement": "IC50", "setting": "[5]", "value": "> 5", "unit": "µM"}, {"measurement": "IC50", "setting": "[6]", "value": 5, "unit": "µM"}, {"measurement": "IC50", "setting": "[7]", "value": "> 5", "unit": "µM"}, {"measurement": "IC50", "setting": "[8]", "value": "6 ± 2.7", "unit": "µM"}, {"measurement": "IC50", "setting": "[9]", "value": "> 5", "unit": "µM"}, {"measurement": "inhibitory effect on clinical isolates of MRSA USA300", "setting": "[10]", "value": "inhibitory effect"}, {"measurement": "inhibitory effect on clinical isolates of VRE 197", "setting": "[11]", "value": "inhibitory effect"}]}
{"smiles": "O=C(N[C@H]1COC(=O)[C@@H](NC(=O)c2cc([C@@H]3O[C@H](CO)[C@@H](O)[C@H](O)[C@H]3O)cc(O)c2O)COC(=O)[C@@H](NC(=O)c2cc([C@@H]3O[C@H](CO)[C@@H](O)[C@H](O)[C@H]3O)cc(O)c2O)COC1=O)c1cccc(O)c1O", "note": "[Salmochelin, Salmochelin S4]", "values": [{"measurement": "inhibitory effect on clinical isolates of VRE 195", "setting": "[1]", "value": "inhibitory effect"}, {"measurement": "IC50", "setting": "[2]", "value": 5, "unit": "µM"}, {"measurement": "antimicrobial activity against S. aureus in the presence of iron ions", "setting": "[3]", "value": "reduce but do not abolish"}, {"measurement": "IC50", "setting": "[4]", "value": "3.12 ± 1.25", "unit": "µM"}, {"measurement": "IC50", "setting": "[5]", "value": 5, "unit": "µM"}, {"measurement": "IC50", "setting": "[6]", "value": 2.5, "unit": "µM"}, {"measurement": "IC50", "setting": "[7]", "value": 5, "unit": "µM"}, {"measurement": "IC50", "setting": "[8]", "value": "2.4 ± 0.22", "unit": "µM"}, {"measurement": "IC50", "setting": "[9]", "value": 2.5, "unit": "µM"}, {"measurement": "inhibitory effect on clinical isolates of MRSA USA300", "setting": "[10]", "value": "inhibitory effect"}, {"measurement": "inhibitory effect on clinical isolates of VRE 197", "setting": "[11]", "value": "inhibitory effect"}]}
